In patent US4892887A, “N,N'-bis(sulfonyl)hydrazines having antineoplastic activity” (Yale University, priority 1988, dated 1990):

System: B16 melanoma
Assay: Survival time of mice bearing the B16 melanoma
Format: in vivo, mouse (C57B1 mice)
Conditions: Table V
Method: This tumor was propagated in C57B1mice. Transplantation was carried out by removing tumors from donor mice bearing 14-day subcutaneous tumor growths. The tissue was fragmented to make a well-dispersed cellular suspension and diluted with Fischer's medium without serum so that one gram of tissue was suspended in 5 ml of solution. A portion (0.2 ml) of the resulting cell suspension was injected intraperitoneally into each recipient animal. All compounds were administered over a wide range of dosage levels by intraperitoneal injection, beginning 24 hours after tumor implantation, once daily for 6 consecutive days. The test compounds were injected as fine suspensions following homogenization in 2 to 3 drops of 20% aqueous Tween 80 and then made up to volume with isotonic saline. […] Mice were weighed during the course of the experiments, and the percent change in body weight from onset to termination of therapy was used as an indication of drug toxicity. Determination of the sensitivity of neoplasms to these agents was based on the prolongation of survival time afforded by the drug treatments.
^a Administered once daily for six consecutive days, beginnign 24
hours after tumor transplanation, with 5 animals being used per group.
^b Average change in body weight from onset to termination of therapy
^c % T/C = average survival time of treated/control animals ×
100. Each value represents the average of 5 animals per group.

Row | Structure (SMILES) | Max. % T/C B16 Melanoma [% T/C]
1 | CN(NS(=O)(=O)c1ccc2ccccc2c1)S(=O)(=O)c1ccccc1 [Compound 18] | 181
2 | CN(NS(=O)(=O)c1ccc(Br)cc1)S(=O)(=O)c1ccccc1 [Compound 19] | 187
3 | Cc1ccc(S(=O)(=O)N(C)NS(=O)(=O)c2ccc([N+](=O)[O-])cc2)cc1 [Compound 22] | 192
4 | COc1ccc(S(=O)(=O)N(C)NS(=O)(=O)c2ccc(Cl)cc2)cc1 [Compound 24, N'-(p-chlorobenzenesulfonyl)-N-(p-methoxybenzene-sulfonyl)-N-methylhydrazine] | 170
5 | COc1ccc(S(=O)(=O)N(C)NS(=O)(=O)c2ccc3ccccc3c2)cc1 [Compound 27] | 163
6 | CN(NS(=O)(=O)C=Cc1ccccc1)S(=O)(=O)c1ccc(Cl)cc1 [Compound 34] | 143
7 | CCS(=O)(=O)NN(C)S(=O)(=O)c1ccc(Cl)cc1 [Compound 36] | 164
8 | CN(NS(=O)(=O)c1ccccc1)S(=O)(=O)c1ccc(Br)cc1 [Compound 37, N'-benzenesulfonyl-N-(p-bromobenzenesulfonyl)-N-methylhydrazine] | 160
9 | CN(NS(=O)(=O)c1ccc(Cl)cc1)S(=O)(=O)c1ccc(Br)cc1 [Compound 40, N-(p-bromobenzenesulfonyl)-N'-(p-chlorobenzenesulfonyl)-N-methylhydrazine] | 145
10 | CN(NS(=O)(=O)c1ccc2ccccc2c1)S(=O)(=O)c1ccc(Br)cc1 [Compound 42, N-(p-bromobenzenesulfonyl)-N-methyl-N-(2-naphthalenesulfonyl)hydrazine] | 146
11 | CN(NS(=O)(=O)C=Cc1ccccc1)S(=O)(=O)c1ccc(Br)cc1 [Compound 43, N-(p-bromobenzenesulfonyl)-N-methyl-N'-(2-styrenesulfonyl)hydrazine] | 178
12 | CN(NS(C)(=O)=O)S(=O)(=O)c1ccc(Br)cc1 [Compound 44] | 221
13 | COc1ccc(S(=O)(=O)NN(C)S(=O)(=O)Cc2ccccc2)cc1 [Compound 51] | 182
14 | CN(NS(=O)(=O)c1ccc(Br)cc1)S(=O)(=O)Cc1ccccc1 [Compound 53] | 163
15 | CN(NS(=O)(=O)Cc1ccccc1)S(=O)(=O)Cc1ccccc1 [Compound 55, N,N'-bis(benzylsulfonyl)-N-methylhydrazine] | 152
16 | CN(NS(C)(=O)=O)S(=O)(=O)Cc1ccccc1 [Compound 56] | 203
17 | CN(NS(=O)(=O)C=Cc1ccccc1)S(=O)(=O)C=Cc1ccccc1 [Compound 57] | 171
18 | CC(=O)Nc1ccc(S(=O)(=O)N(C)NS(=O)(=O)c2ccc(Br)cc2)cc1 [Compound 58] | 164
19 | CN(NS(C)(=O)=O)S(=O)(=O)c1ccc(I)cc1 [Compound 62] | 195

System: L1210 leukemia
Assay: Survival time of mice bearing the L1210 leukemia
Format: in vivo, mouse (CDF-1 mice)
Conditions: Table V
Excerpt: The ascites cell forms of the L1210 leukemia, Sarcoma 180 and P388 leukemia were propagated in CDF-1 mice. […] Mice were weighed during the course of the experiments, and the percentage change in body weight from the onset to termination of therapy was used as an indication of host toxicity.
Each value represents the average of 5 animals per group.

Row | Structure (SMILES) | Max. % T/C L1210 Leukemia [% T/C]
20 | Cc1ccc(S(=O)(=O)N(C)NS(=O)(=O)c2ccc3ccccc3c2)cc1 [Compound 21, N'-(2-naphthalenesulfonyl)-N-methyl-N-(p-toluenesulfonyl)hydrazine] | 134
21 | Cc1ccc(S(=O)(=O)NN(C)S(=O)(=O)c2ccc(Br)cc2)cc1 [Compound 38, N-(p-bromobenzenesulfonyl)-N-methyl-N'-(p-toluenesulfonyl)hydrazine] | 127
22 | Cc1ccc(S(=O)(=O)NN(C)S(=O)(=O)c2ccc3ccccc3c2)cc1 [Compound 46, N-(N'-naphthalenesulfonyl)-N-methyl-N'-(p-toluenesulronyl)hydrazine] | 120
23 | CN(NS(=O)(=O)c1ccc2ccccc2c1)S(=O)(=O)Cc1ccccc1 [Compound 54] | 115
